Read-outs that look alike come from different tables or passages of the source.
Tests used:
[1] = Photostability: iodide formed after visible light irradiation; assay type: physicochemical; settings: for Iodide formed: 50 mM agent, 10 mM TRIS, pH 7.4, VIS 72 h
Protocol: Aqueous solutions comprising iodinated contrast agents were prepared and evaluated in a photolysis chamber as described in the ICH guidance document, Q1B Photostability Testing of New Drug Substances and Products, available from the US Food and Drug Administration, incorporated herein by reference. The solutions were placed in 1 cm×1 cm (3 mL) quartz cuvettes having 2 clear sides and 2 sides etched. Lids were placed on the cuvettes and sealed with a wrap of Parafilm® around the joint. The cuvettes were placed in a photolysis chamber, upright on a flat surface beneath and centered between two horizontal 24 inch fluorescent lamps, (GE, black light F20T12, 20 watt for ultraviolet, or Philips F20T12/CW, 20 watt for visible) placed 6 cm apart. The cuvettes were positioned such that their two clear sides were facing the two lamps.
Cuvettes were spaced ˜2 cm from each other, and no closer than 15 cm from the ends of the lamps. This positioning allowed reproducible light exposure to all cuvettes.
(§1) The lamps were switched on and the solutions irradiated for 18 to 24 hours for the ultraviolet (UV) lamps or 72 to 90 hours for the visible (VIS) light lamps. At the end of the selected irradiation time, the cuvettes were removed from the photolysis chamber and mixed by inversion 2-times. The caps were then removed and 40 microliter aliquots taken and diluted with 1 mL of an aqueous solution containing ˜0.9 mg/mL sodium thiosulfate. The thiosulfate solution converted any I2, IO3^−, and I3^− present in the solution tor such that total iodine species could be determined in one assay.
(§2) The diluted solutions were assayed by high pressure liquid chromatography (HPLC) using a 4.6×250 mm, C-18, 5 micron particle size, reversed phase column with detection at 280 nm for the contrast agent and 230 nm for the thiosulfate and the iodide ion (r). A mobile phase of 30:70 methanol:aqueous buffer (50 mM KH2PO4+7 mL/L 40% tetrabutyl ammonium hydroxide) at 0.75 mL/min was used for elution. Injection volume was 20 microliters. External standards were prepared containing each contrast agent, potassium iodide, and sodium thiosulfate solution and analyzed along with the irradiated samples. The results were reported as weight percentage iodide formed (mg iodide/mg contrast agent times 100).
The absorbance readings at 400 nm due to light exposure were plotted against time of exposure and the resulting correlation used to determine the UV and VIS light exposure. A change in absorbance reading of 0.45 was assumed equivalent to 200 watt hours/square meter for the UV light and a change of 0.51 was assumed equivalent to 1.2 million lux hours for the VIS light. The UV lamps provided 6.62 watts/square meter and the VIS lamps provided 7180 lux.
Aqueous solutions were prepared containing 473 mM iohexol (180 mg 1/mL), 10 mM tromethamine HCl buffer (TRIS), with and without various SCDs. The pH of the solutions was adjusted to 7.4 with 0.1N hydrochloric acid. Aliquots of the solutions were irradiated with ultraviolet (UV) light for 18 hours (119 watt hours/m^2) and other aliquots irradiated with visible (VIS) light for 90 hours (0.65 million lux hours). The solutions were then processed, analyzed and reported as in Example 2, with the exception that the iohexol peak was measured at 300 nm for both samples and standards. Results of the study are presented in the table below along with the SCD used. The SCDs included derivatives prepared from alpha, beta, and gamma CD to evaluate the effect of CD cavity size. Various substituents, including one derivative containing more than one type of substituent, and degrees of substitution (DS) were also evaluated.
Aqueous solutions were prepared containing 50 mM iodinated contrast agent, 10 mM tromethamine HCl buffer (TRIS), with and without sulfobutylether beta-cyclodextrin with an average degree of substitution-7 (SBE7-β-CD), or 2-hydroxypropyl beta-cyclodextrin with an average degree of substitution of ˜6.3 (HP6.3-β-CD) or ˜4.3 (HP4.3-β-CD). […]

[2] = assay type: physicochemical
Protocol: as §1, §2
Aqueous solutions were prepared containing 50 mM iodinated contrast agent, 10 mM tromethamine HCl buffer (TRIS), with and without sulfobutylether beta-cyclodextrin with an average degree of substitution-7 (SBE7-β-CD), or 2-hydroxypropyl beta-cyclodextrin with an average degree of substitution of ˜6.3 (HP6.3-β-CD) or ˜4.3 (HP4.3-β-CD). The iohexol solution was prepared by dissolving solid iohexol powder while the other solutions were prepared by diluting commercial formulated products and adding sufficient TRIS buffer to reach 10 mM. The pH of the solutions was adjusted to 7.4 with 0.1N hydrochloric acid.
Aliquots of the solutions were irradiated with visible light for 72 hours (0.52 million lux hours). Other aliquots were autoclaved for 20 minutes at 121° C., cooled to room temperature and then irradiated with ultraviolet light for 18 hours (119 watt hours/m2). The solutions were then processed, analyzed and reported as in Example 2, except that the chromatographic peaks of the contrast agents were evaluated at 300 nm for both samples and standards. […]
Aqueous formulations were prepared containing iodinated contrast agents at concentrations used commercially in medical procedures. Sulfobutylether-cyclodextrin, sodium salt, average degree of substitution ˜7 (SBE7CD) was added at varying agent:CD mole ratios. The formulations were placed in glass vials, sealed with rubber stoppers and aluminum crimps, and autoclaved at 121° C. for 20 minutes. Aliquots of the autoclaved solutions were exposed to UV light for 24 hours (159 watt hours/m^2 or VIS light for 72 hours (0.52 million lux hours) as in Example 2. The solutions were then processed, analyzed and reported as in Example 2, with the following two exceptions; 1) the chromatographic peaks of the contrast agents were evaluated at 300 nm for both samples and standards, and 2) only 20 microliter sample aliquots were taken and diluted for HPLC analysis due to the higher concentrations used in this study. Results of the study are presented in the table below along with the solution compositions.

CC(=O)N(CC(O)CN(C(C)=O)c1c(I)c(C(=O)NCC(O)CO)c(I)c(C(=O)NCC(O)CO)c1I)c1c(I)c(C(=O)NCC(O)CO)c(I)c(C(=O)NCC(O)CO)c1I (stereo not drawn) [Iodixanol, iodixanol]
Iodide formed ([1]; agent:SBE7-β-CD 1:0.1): 0.142 wt %
Iodide formed ([1]; no SCD (1:0)): 0.153 wt %
Iodide Formed, Autoclaved ([2]; Iodixanol 270 mg I/mL, pH 7.4, agent:SBE7CD 1:0.05): 0.0161 wt %
Iodide Formed, Autoclaved ([2]; Iodixanol 270 mg I/mL, pH 7.4, no SCD (1:0)): 0.0167 wt %
Iodide Formed, Autoclaved ([2]; Iodixanol 320 mg I/mL, pH 7.4, agent:SBE7CD 1:0.05): 0.0135 wt %
Iodide Formed, Autoclaved ([2]; Iodixanol 320 mg I/mL, pH 7.4, no SCD (1:0)): 0.0132 wt %

COCC(=O)Nc1c(I)c(C(=O)NCC(O)CO)c(I)c(C(=O)N(C)CC(O)CO)c1I (stereo not drawn) [Iopromide, iopromide]
Iodide formed ([1]; agent:SBE7-β-CD 1:0.1): 0.269 wt %
Iodide formed ([1]; no SCD (1:0)): 0.311 wt %
Iodide Formed, Autoclaved ([2]; Iopromide 150 mg I/mL, pH 7.4, agent:SBE7CD 1:0.05): 0.00289 wt %
Iodide Formed, Autoclaved ([2]; Iopromide 150 mg I/mL, pH 7.4, no SCD (1:0)): 0.00383 wt %
Iodide Formed, Autoclaved ([2]; Iopromide 240 mg I/mL, pH 7.4, agent:SBE7CD 1:0.05): 0.00217 wt %
Iodide Formed, Autoclaved ([2]; Iopromide 240 mg I/mL, pH 7.4, no SCD (1:0)): 0.00204 wt %
Iodide Formed, Autoclaved ([2]; Iopromide 300 mg I/mL, pH 7.4, agent:SBE7CD 1:0.05): 0.00118 wt %
Iodide Formed, Autoclaved ([2]; Iopromide 300 mg I/mL, pH 7.4, no SCD (1:0)): 0.00145 wt %
Iodide Formed, Autoclaved ([2]; Iopromide 370 mg I/mL, pH 7.4, agent:SBE7CD 1:0.05): 0.00072 wt %
Iodide Formed, Autoclaved ([2]; Iopromide 370 mg I/mL, pH 7.4, no SCD (1:0)): 0.00111 wt %

O=C(NCC(O)CO)c1c(I)c(C(=O)NCC(O)CO)c(I)c(N(CCO)C(=O)CO)c1I (stereo not drawn) [Ioversol, ioversol]
Iodide formed ([1]; agent:SBE7-β-CD 1:0.1): 0.301 wt %
Iodide formed ([1]; no SCD (1:0)): 0.304 wt %
percent change in iodide degradants formed in the presence of the SCD ([1]; 72 h, 50 mM, pH 7.4): (−1%)
percent change in iodide degradants formed in the presence of the SCD ([2]; 20 min, 50 mM, pH 7.4): (−30.8%)
Iodide Formed, Autoclaved ([2]; Ioversol 160 mg I/mL, pH 7.1, agent:SBE7CD 1:0.05): 0.0241 wt %
Iodide Formed, Autoclaved ([2]; Ioversol 160 mg I/mL, pH 7.1, no SCD (1:0)): 0.0244 wt %
Iodide Formed, Autoclaved ([2]; Ioversol 240 mg I/mL, pH 7.1, agent:SBE7CD 1:0.05): 0.0162 wt %
Iodide Formed, Autoclaved ([2]; Ioversol 240 mg I/mL, pH 7.1, no SCD (1:0)): 0.0160 wt %
Iodide Formed, Autoclaved ([2]; Ioversol 300 mg I/mL, pH 7.1, agent:SBE7CD 1:0.05): 0.0129 wt %
Iodide Formed, Autoclaved ([2]; Ioversol 300 mg I/mL, pH 7.1, no SCD (1:0)): 0.0135 wt %
Iodide Formed, Autoclaved ([2]; Ioversol 320 mg I/mL, pH 7.1, agent:SBE7CD 1:0.05): 0.0127 wt %
Iodide Formed, Autoclaved ([2]; Ioversol 320 mg I/mL, pH 7.1, no SCD (1:0)): 0.0130 wt %
Iodide Formed, Autoclaved ([2]; Ioversol 350 mg I/mL, pH 7.1, agent:SBE7CD 1:0.05): 0.0120 wt %
Iodide Formed, Autoclaved ([2]; Ioversol 350 mg I/mL, pH 7.1, no SCD (1:0)): 0.0124 wt %
